Reference: article PMC8795404, “Mutations in respiratory complex I promote antibiotic persistence through alterations in intracellular acidity and protein synthesis” (Nature Communications, 2022)

Columns and labels:
Format in all cases: biochemical
[1] = target: T1, complex I (NADH/ubiquinone oxidoreductase) (Escherichia coli, UniProt P0AFC7+P0AFD4+P31979+P33599); test: NADH absorbance at […] nm, proteoliposomes; settings: 100 µM NADH, 60 µM decyl-ubiquinone, 5 mM MES/NaOH, 50 mM KCl, 2 mM MgCl2, pH 6.0, 30 °C
T1 construct: gene nuoB; 13-subunit complex, about 550 kDa, NuoF His6-tagged (pBADnuo nuoFHis6) expressed in BW25113 delta-nuo delta-ndh; DDM-purified, in proteoliposomes or in membranes; with NADH-quinone oxidoreductase subunit A; NADH-quinone oxidoreductase subunit E; NADH-quinone oxidoreductase subunit G; NADH-quinone oxidoreductase subunit I; NADH-quinone oxidoreductase subunit J; NADH-quinone oxidoreductase subunit K; NADH-quinone oxidoreductase subunit L; NADH-quinone oxidoreductase subunit M; NADH-quinone oxidoreductase subunit N

[2] = target: T2, ENC-spoT (encapsulin SpoT) (Escherichia coli, UniProt P0AG24); test: HPLC-UV ([…] nm) ppGpp hydrolysis; settings: 1 mM ppGpp, 1 mM manganese, cytosolic buffer with 250 mM imidazole and 0.1% triton-X100, 25 °C, pH varied; enzyme encapsulated in nanocage
T2 construct: N-terminal 6xHis tag, C-terminal 30-residue DyP-peroxidase cargo tag; co-expressed in E. coli BL21-AI inside Mycolicibacterium hassiacum encapsulin nanocage

6His-SpoT = target: T3, 6His-SpoT (Escherichia coli, UniProt P0AG24); test: HPLC-UV ([…] nm) ppGpp hydrolysis; settings: 1 mM ppGpp, 1 mM manganese, cytosolic buffer with 250 mM imidazole, 25 °C, pH varied; free enzyme
T3 construct: full-length with N-terminal His tag (pETM11-SpoT), expressed in E. coli BL21 (DE3) pLysS, Ni-Sepharose purified
T3 sequence (P0AG24 whole entry): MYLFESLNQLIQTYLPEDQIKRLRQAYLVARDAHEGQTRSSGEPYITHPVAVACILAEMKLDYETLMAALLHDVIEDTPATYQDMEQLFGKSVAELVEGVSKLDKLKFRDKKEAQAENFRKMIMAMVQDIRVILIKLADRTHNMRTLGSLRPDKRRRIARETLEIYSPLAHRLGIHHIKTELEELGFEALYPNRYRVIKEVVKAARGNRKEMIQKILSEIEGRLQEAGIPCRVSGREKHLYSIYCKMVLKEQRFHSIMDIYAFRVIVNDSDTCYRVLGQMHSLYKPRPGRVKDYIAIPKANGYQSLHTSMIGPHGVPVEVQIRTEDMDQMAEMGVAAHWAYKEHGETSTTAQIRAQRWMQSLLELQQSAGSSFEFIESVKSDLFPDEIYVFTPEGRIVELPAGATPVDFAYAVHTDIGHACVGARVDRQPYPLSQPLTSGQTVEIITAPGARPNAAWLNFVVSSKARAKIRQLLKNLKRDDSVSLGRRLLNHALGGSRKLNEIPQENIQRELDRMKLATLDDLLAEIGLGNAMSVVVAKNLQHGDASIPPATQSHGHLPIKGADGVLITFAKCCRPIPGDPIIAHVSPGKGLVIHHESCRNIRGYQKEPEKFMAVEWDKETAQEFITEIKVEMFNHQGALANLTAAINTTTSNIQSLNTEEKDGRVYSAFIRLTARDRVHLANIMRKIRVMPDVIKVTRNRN

T2 sequence (P0AG24 whole entry): as above

Row | Compound | NADH absorbance at 340 nm, proteoliposomes [1] | HPLC-UV (260 nm) ppGpp hydrolysis [2] | HPLC-UV (260 nm) ppGpp hydrolysis (6His-SpoT)
1 | CCCCCCCCCCC1=C(C)C(=O)C(OC)=C(OC)C1=O [decyl ubiquinone] | NADH/decyl ubiquinone oxidoreduction was followed by monitoring the decreasing NADH concentration | – | –
2 | Nc1nc2c(ncn2[C@@H]2O[C@H](COP(=O)(O)OP(=O)(O)O)[C@@H](OP(=O)(O)OP(=O)(O)O)[C@H]2O)c(=O)[nH]1 [ppGpp] | – | We used both the encapsulated SpoT and regularly purified SpoT | SpoT hydrolyzes ppGpp to GDP, and that manganese ions are necessary for hydrolysis
3 | NC(=O)C1=CN([C@@H]2O[C@H](COP(=O)(O)OP(=O)(O)OC[C@H]3O[C@@H](n4cnc5c(N)ncnc54)[C@H](O)[C@@H]3O)[C@@H](O)[C@H]2O)C=CC1 [NADH] | liposomes reconstituted with wild-type complex I and the variants oxidized NADH at a similar rate | – | –
